Results published in US10028906B2, “Method and kit for treating a solid tumor and associated desmoplasia” (Rosalind Franklin Univ. of Medicine and Science, priority 2016, dated 2018).
“Also recorded” adds a separate entry of the source. Where no end group is shown, it is not given here.

Assays:
FC1199 orthotopic tumors [1] = assay: in vivo FC1199 orthotopic tumors, vessel number/vessel density (angiogenesis); parameters: species or system mice; settings: no day stated
Description: (§1) While not wishing to be bound to any particular theory, it was hypothesized that the peptides might still be effective in blocking the formation and/or removing the formation of desmoplasia or tumor stroma associated with a solid tumor alone acting to prevent and or to treat cancer and as well to providing greater access of the chemotherapeutic or immunotherapeutic agent to the tumor. […] It is believed that many large, and smaller, molecule immunotherapeutic agents will not react with Peptides 1 and 2 and they may also be used in combination with one another.

FC1199 orthotopic tumors [2] = assay: in vivo FC1199 orthotopic tumors, tumor burden as pancreas weight; parameters: species or system mice; settings: for potentiation of the therapeutic effects of gemcitabine / chemotherapeutic agent in vivo: combination, pancreas weight, FIGS. 21 and 22; for tumor burden / tumor growth as measured by pancreas weight: orthotopic FC1199 tumors in mice, no day stated
Description: FIGS. 1-24 show the in vitro and in vivo studies of CCNp37 (SEQ ID NO. 37) (Peptide 2 in the FIGS.) and CCNp38 (SEQ ID NO. 38) (Peptide 1 in the FIGS.) alone or in combination with a chemotherapeutic agent gemcitabine in treating pancreatic cells or orthotopic tumors implanted in the pancreas of mice. Gemcitibine is an example of an approved small molecule chemotherapeutic agent that is used in the clinic for pancreatic cancer, other suitable chemotherapeutic or immunotherapeutic agents are, for example, Abraxane (Paclitaxel Albumin-stabilized Nanoparticle Formulation), Afinitor (Everolimus), Erlotinib Hydrochloride, Everolimus, 5-FU (Fluorouracil Injection), Fluorouracil Injection, Gemcitabine Hydrochloride, Gemzar (Gemcitabine Hydrochloride), Irinotecan Hydrochloride Liposome, Mitomycin C, Mitozytrex (Mitomycin C), Mutamycin (Mitomycin C), Onivyde (Irinotecan Hydrochloride Liposome), Paclitaxel Albumin-stabilized Nanoparticle Formulation, Sunitinib Malate, Sutent (Sunitinib Malate), and Tarceva (Erlotinib Hydrochloride) and combinations of the same. Other suitable drug combinations for treating pancreatic cancer includes: FOLFIRINOX, GEMCITABINE-CISPLATIN, GEMCITABINE-OXALIPLATIN, and OFF. Suitable drugs for treatment for gastroenteropancreatic neuroendocrine tumors: Lanreotide Acetate, and Somatuline Depot (Lanreotide Acetate).
(§2) FIGS. 6-24 show the experimental protocol and results of in vivo studies of orthotopic tumors derived from the Murine FC1199 cell line and implanted into Kras and P53 mice.
FIGS. 18 and 19 show the protocol of a second in vivo experiment (Experiment 2).
(§3) FIGS. 21-24 show the protocol for the second invo experiment on the effectiveness of administering Peptides 1 and 2±gemcitabine. […] In FIG. 21, peptide 1 or 2 was delivered on day 11 of the study after tumor implantation and gemcitabine was delivered on day 14. […] Ascites formation is a marker of late stage pancreatic cancer and can predict mortality.

FC1199 cells = assay: in vitro FC1199 cell growth, gemcitabine repression; assay type: cell-based, Murine; settings: FIGS. 3 and 5
Description: (§4) Peptides were examined in two different pancreatic cancer cell lines to determine consistency of response. We sought to determine if there was efficacy of the peptide alone, or in combination with conventional chemotherapy, i.e., does it potentiate the effects of current therapy. The two cell lines used were Human MIA PaCa2-Luc, and Murine FC1199 (derived from tumors in KPC GEM mice).
(§5) The in vitro studies used human MIA PaCa2-Luc, and Murine FC1199 cell lines.

FC1199 orthotopic tumors [3] = assay: in vivo FC1199 orthotopic tumors, matrix deposition (desmoplasia); parameters: species or system mice; settings: no day stated
Description: as §1, §2

FC1199 orthotopic tumors [4] = assay: in vivo FC1199 orthotopic tumors, ascites production; parameters: species or system mice
Description: as §3

[5] = tested on: Human MIA PaCa2-Luc, and Murine FC1199 pancreatic cancer cell lines; assay: in vitro cancer cell growth in two pancreatic cancer cell lines; assay type: cell-based; settings: FIGS. 2-5
Description: as §4, §5

[6] = tested on: MIA PaCa2-Luc cancer cells; assay: in vitro proliferation of MIA PaCa2-Luc cancer cells; assay type: cell-based, Human; settings: FIG. 2
Description: as §4, §1, §5

[7] = in vivo toxicity study (body weight change); settings: tumor-bearing mice
Description: as §2
Ascites formation is a marker of late stage pancreatic cancer and can predict mortality.

renal fibrosis = settings: disclosed in U.S. Pat. No. 7,780,949; cited from earlier work

In the case of “SDRSADPNNQTGIS [Peptide 1, Mouse analog with native cysteines replaced with serines]”, the “angiogenesis as measured by vessel number/vessel density” value (FC1199 orthotopic tumors [1]) is reported as “reducing angiogenesis; also recorded: a reduction in angiogenesis as measured by vessel number/vessel density”, the “tumor burden in terms of pancreas weight, day 14” value (FC1199 orthotopic tumors [2]; Experiment 2, day 14, vs control) is reported as “effective in reducing the tumor burden in terms of reduced pancreas weight when compared to a control” and the “tumor burden in terms of pancreas weight, day 25” value (FC1199 orthotopic tumors [2]; Experiment 2, day 25, vs control) is reported as “effective in reducing the tumor burden in terms of reduced pancreas weight when compared to a control”. For the same molecule, the “potentiation of the therapeutic effects of gemcitabine / chemotherapeutic agent in vivo” value (FC1199 orthotopic tumors [2]) was “can potentiate the therapeutic effects of the standard chemotherapeutic agent gemcitabine”, the “potentiation of the therapeutic effects of gemcitabine / chemotherapeutic agent in vivo” value (FC1199 orthotopic tumors [2]; listed as CCNp38) was “treat a solid tumor more effectively than the chemotherapeutic or immunotherapeutic agents alone” and the “tumor burden / tumor growth as measured by pancreas weight” value (FC1199 orthotopic tumors [2]) was “effective in reducing the growth of orthotopic FC1199 tumor burden as measured by pancreas weight; also recorded: effective in reducing tumor growth and weight”. For the same molecule, the “expansion and spread of the tumor and cancer cells” value (FC1199 orthotopic tumors [2]; overview FIG. 1) was “blocking the expansion and spread of the tumor and cancer cells”, the “potentiation of gemcitabine repression of FC1199 cell growth” value (FC1199 cells) was “did not potentiate the effects of gemcitabine in repressing of FC1199 cell growth” and the “desmoplasia as measured by matrix deposition area” value (FC1199 orthotopic tumors [3]) was “effective in treating desmoplasia or stroma associated with a solid tumor; also recorded: a reduction in desmoplasia as measured by matrix deposition area”. For the same molecule, the “number of mice with ascites / ascites formation” value (FC1199 orthotopic tumors [4]; day 25, vs control) was “reducing the formation of ascites associated with a solid tumor; also recorded: effective in reducing the number of mice with ascites”, the inflammation (FC1199 orthotopic tumors [4]; inferred from ascites data) was “reduce inflammation” and the “cancer growth / cell proliferation in vitro” value ([5]; agent alone) was “did not slow cancer growth in vitro; also recorded: do not have an effect in cell proliferation”. For the same molecule, the “potentiation of the effects of gemcitabine in reducing cancer growth in vitro” value ([5]; combination with gemcitabine) was “did little or nothing to potentiate the effects of the chemotherapeutic agent gemcitabine in reducing cancer growth in vitro” and the “proliferation of MIA PaCa2-Luc cancer cells” value [6] was “do not reduce the proliferation of MIA PaCa2-Luc cancer cells”.

For Nc1ccn([C@@H]2O[C@H](CO)[C@@H](O)C2(F)F)c(=O)n1 [Gemcitabine, gemcitabine, reference compound], the “tumor burden / tumor growth as measured by pancreas weight” value (FC1199 orthotopic tumors [2]) was “produces a dose-dependent response to tumor burden”.

In the case of “FSGVSSDGRSSTPH [Peptide 2, FSGVSSDGRSSTPH]”, the “toxicity (body weight change)” value [7] is reported as “non-toxic”.

B1: full-length CCN3 molecule: full-length CCN3 protein of U.S. Pat. No. 7,780,949 (protein, UniProt P48745 1-357, looked up)
chain: MQSVQSTSFCLRKQCLCLTFLLLHLLGQVAATQRCPPQCPGRCPATPPTCAPGVRAVLDGCSCCLVCARQRGESCSDLEPCDESSGLYCDRSADPSNQTGICTAVEGDNCVFDGVIYRSGEKFQPSCKFQCTCRDGQIGCVPRCQLDVLLPEPNCPAPRKVEVPGECCEKWICGPDEEDSLGGLTLAAYRPEATLGVEVSDSSVNCIEQTTEWTACSKSCGMGFSTRVTNRNRQCEMLKQTRLCMVRPCEQEPEQPTDKKGKKCLRTKKSLKAIHLQFKNCTSLHTYKPRFCGVCSDGRCCTPHNTKTIQAEFQCSPGQIVKKPVMVIGTCTCHTNCPKNNEAFLQELELKTTRGKM
modifications: full-length
In the case of B1, the “fibrosis in an in vitro model of renal fibrosis” value (renal fibrosis) is listed as “blocks fibrosis”.
